Assay results published in article PMC3063099 (Xenobiotica; the fate of foreign compounds in biological …, 2010).
Read-outs that look alike come from different tables or passages of the source.

Tests used:
[1] = target: T1, CYP3A4 mutant L211F/D214E (Homo sapiens, UniProt P08684, D214E/L211F); assay: Titration-by-dilution monitored by FRET; assay type: binding; details: for Efficiency of FRET: L211F/D214E
[2] = target: T2, CYP3A4 wild type (Homo sapiens, UniProt P08684); assay: Titration-by-dilution monitored by FRET; assay type: binding; details: for Efficiency of FRET: wild type
[3] = target: T3, CYP3A4 mutant F213W (Homo sapiens, UniProt P08684, F213W); assay: Titration-by-dilution monitored by FRET; assay type: binding; details: for Efficiency of FRET: F213W
[4] = target: T4, CYP3A4 mutant F304W (Homo sapiens, UniProt P08684, F304W); assay: Absorbance titration, substrate-induced spin shift; details: for nH (Hill coefficient): Hill equation fit; for Kd: human, pH 7.4
[5] = target: T3, CYP3A4 mutant F213W; assay: Absorbance titration, substrate-induced spin shift; details: for nH (Hill coefficient): Hill equation fit; for Kd: human, pH 7.4
[6] = target: T2, CYP3A4 wild type; assay: Absorbance titration, substrate-induced spin shift; details: for Kd: human, pH 7.4; for nH (Hill coefficient): Hill equation fit
[7] = target: T4, CYP3A4 mutant F304W; assay: Titration-by-dilution monitored by FRET; assay type: binding; details: for Efficiency of FRET: F304W
[8] = target: T3, CYP3A4 mutant F213W; assay: Titration-by-dilution at excess substrate monitored by spin shift; assay type: binding
[9] = target: T2, CYP3A4 wild type; assay: as above; assay type: binding
[10] = target: T1, CYP3A4 mutant L211F/D214E; assay: as above; assay type: binding
[11] = target: T1, CYP3A4 mutant L211F/D214E; assay: Absorbance titration, substrate-induced spin shift; details: for nH (Hill coefficient): Hill equation fit; for Kd: human, pH 7.4
[12] = target: T4, CYP3A4 mutant F304W; assay: Titration-by-dilution at excess substrate monitored by spin shift; assay type: binding
[13] = target: T4, CYP3A4 mutant F304W; details: pH 7.4
[14] = target: T2, CYP3A4 wild type; details: pH 7.4
[15] = target: T1, CYP3A4 mutant L211F/D214E; details: pH 7.4
[16] = target: T3, CYP3A4 mutant F213W; details: pH 7.4
[17] = equimolar enzyme-substrate mixture
[18] = human, CYP3A4 wild type enzyme in buffer, pH 7.4

T1 sequence (P08684 whole entry L211F/D214E): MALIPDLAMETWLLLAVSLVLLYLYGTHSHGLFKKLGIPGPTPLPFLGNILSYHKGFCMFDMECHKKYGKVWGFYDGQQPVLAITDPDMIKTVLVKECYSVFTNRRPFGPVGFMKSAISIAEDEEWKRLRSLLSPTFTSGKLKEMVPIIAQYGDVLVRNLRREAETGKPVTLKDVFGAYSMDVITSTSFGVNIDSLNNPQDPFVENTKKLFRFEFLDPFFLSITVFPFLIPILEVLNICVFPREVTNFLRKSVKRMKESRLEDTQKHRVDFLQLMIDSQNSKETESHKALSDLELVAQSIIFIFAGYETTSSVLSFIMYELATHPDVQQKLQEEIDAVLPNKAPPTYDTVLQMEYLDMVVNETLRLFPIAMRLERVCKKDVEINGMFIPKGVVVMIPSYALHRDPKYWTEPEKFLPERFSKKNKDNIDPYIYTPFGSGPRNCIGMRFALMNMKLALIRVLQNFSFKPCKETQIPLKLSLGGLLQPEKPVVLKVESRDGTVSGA
T2 sequence (P08684 whole entry): as the sequence (P08684 whole entry L211F/D214E) above, with F211L, E214D counted along it
T3 sequence (P08684 whole entry F213W): as the sequence (P08684 whole entry L211F/D214E) above, with F211L, F213W, E214D counted along it
T4 sequence (P08684 whole entry F304W): as the sequence (P08684 whole entry L211F/D214E) above, with F211L, E214D, F304W counted along it

## OCCCCc1ccc2ccc3cccc4ccc1c2c34 [1-PB, 1-pyrenebutanol]
[1]; KD1, L211F/D214E, equimolar enzyme-substrate mixture, FRET, 0.6 mg/ml HPCD
  Kd: 0.82 ± 0.43 µM
[1]; [17]
  Efficiency of FRET: 108.4 ± 12.9%
[1]; excess substrate (1:6)
  Efficiency of FRET: 83.4 ± 16.4%
[2]
  Kd: 0.25 ± 0.11 µM
[2]; [18]
  Kd: 5 ± 1.1 µM
[2]; [17]
  Efficiency of FRET: 95.2 ± 5.7%
[2]; excess substrate (1:4)
  Efficiency of FRET: 108.0 ± 1.2%
[3]; [17]
  Efficiency of FRET: 80.8 ± 26.4%
[3]; excess substrate (1:5)
  Efficiency of FRET: 109.0 ± 2.0%
[3]; KD1, F213W, equimolar enzyme-substrate mixture, FRET, 0.6 mg/ml HPCD
  Kd: 0.07 ± 0.04 µM
[4]; F304W, pH 7.4, 25 °C
  nH (Hill coefficient): 1.07 ± 0.12
[4]; F304W, pH 7.4, 25 °C, listed as 1-pyrenebutanol
  nH (Hill coefficient): ≤ 1.1
[4]; F304W, absorbance titration, pH 7.4, 25 °C
  Δhmax, amplitude of the substrate-induced spin shift: 57.7 ± 5.6%
[4]; F304W, fit to improved sequential model, KD1 fixed
  FES, fraction of total spin shift caused by the binary complex ES: 15.1 ± 0.8%
[4]; 0.1 m na-hepes
  Kd: 10.7 ± 2 µM
[5]; F213W, pH 7.4, 25 °C
  nH (Hill coefficient): 1.07 ± 0.16
[5]; F213W, pH 7.4, 25 °C, listed as 1-pyrenebutanol
  nH (Hill coefficient): ≤ 1.1
[5]; F213W, absorbance titration, pH 7.4, 25 °C
  Δhmax, amplitude of the substrate-induced spin shift: 57.0 ± 5.9%
[5]; F213W, fit to improved sequential model, KD1 fixed
  FES, fraction of total spin shift caused by the binary complex ES: 7.9 ±1.0%
[5]; 0.1 m na-hepes
  Kd: 12.6 ± 4.6 µM
[6]; 0.1 m na-hepes
  Kd: 11.7 ± 2.4 µM
[6]
  Kd: 12.6 µM
[6]; wild type, pH 7.4, 25 °C
  nH (Hill coefficient): 1.67 ± 0.18
[6]; wild type, pH 7.4, 25 °C, listed as 1-pyrenebutanol
  nH (Hill coefficient): around 1.7
[6]; wild type, absorbance titration, pH 7.4, 25 °C
  Δhmax, amplitude of the substrate-induced spin shift: 46.7 ± 4.9%
[6]; wild type, fit to improved sequential model
  FES, fraction of total spin shift caused by the binary complex ES: 0
[7]; [17]
  Efficiency of FRET: 99.6 ± 7.8%
[7]; excess substrate (1:6)
  Efficiency of FRET: 109.0 ± 1.6%
[7]; KD1, F304W, equimolar enzyme-substrate mixture, FRET, 0.6 mg/ml HPCD
  Kd: 0.26 ± 0.08 µM
[8]; F213W, dilution at excess substrate (1:5)
  Δhmax, maximal amplitude of the spin shift deduced from fitting: 40.0 ± 16%
[8]; human, CYP3A4 mutant F213W enzyme in buffer, pH 7.4
  Kd: 14.4 ± 1.5 µM
[9]; [18]
  Kd: 10.2 ± 1.2 µM
[9]; wild type, dilution at excess substrate (1:5)
  Δhmax, maximal amplitude of the spin shift deduced from fitting: 49.7 ± 7.3%
[10]; L211F/D214E, dilution at excess substrate (1:5)
  Δhmax, maximal amplitude of the spin shift deduced from fitting: 18.2 ± 7.1%
[10]; human, CYP3A4 mutant L211F/D214E enzyme in buffer, pH 7.4
  Kd: 7.3 ± 2.9 µM
[11]; L211F/D214E, pH 7.4, 25 °C
  nH (Hill coefficient): 1.07 ± 0.17
[11]; L211F/D214E, pH 7.4, 25 °C, listed as 1-pyrenebutanol
  nH (Hill coefficient): ≤ 1.1
[11]; L211F/D214E, absorbance titration, pH 7.4, 25 °C
  Δhmax, amplitude of the substrate-induced spin shift: 39.4 ± 5.1%
[11]; L211F/D214E, fit to improved sequential model, KD1 fixed
  FES, fraction of total spin shift caused by the binary complex ES: 21.0 ± 5.7%
[11]; 0.1 m na-hepes
  Kd: 12.1 ± 1.8 µM
[12]; F304W, dilution at excess substrate (1:5)
  Δhmax, maximal amplitude of the spin shift deduced from fitting: 23.2 ± 14.0%
[12]; human, CYP3A4 mutant F304W enzyme in buffer, pH 7.4
  Kd: 11.4 ± 1.1 µM

## O=c1cc(-c2ccccc2)oc2c1ccc1ccccc12 [ANF, α-naphthoflavone]
[4]; F304W, pH 7.4, 25 °C
  nH (Hill coefficient): 2.10 ± 0.20
[4]; CYP3A4 mutant F304W enzyme in buffer
  Kd: 3.63 ± 1.46 µM
[5]; F213W, pH 7.4, 25 °C
  nH (Hill coefficient): 1.52 ± 0.30
[5]; CYP3A4 mutant F213W enzyme in buffer
  Kd: 3.5 ± 1.36 µM
[13]
  Δhmax, amplitude of the substrate-induced spin shift: 36.0 ± 5.2%
[6]; CYP3A4 wild type enzyme in buffer
  Kd: 3.66 ± 0.7 µM
[6]; wild type, pH 7.4, 25 °C
  nH (Hill coefficient): 2.04 ± 0.30
[14]
  Δhmax, amplitude of the substrate-induced spin shift: 40.0 ± 2.5%
[15]
  Δhmax, amplitude of the substrate-induced spin shift: 27.9 ± 2.2%
[11]; L211F/D214E, pH 7.4, 25 °C
  nH (Hill coefficient): 1.68 ± 0.16
[11]; CYP3A4 mutant L211F/D214E enzyme in buffer
  Kd: 3.67 ± 1.16 µM
[16]
  Δhmax, amplitude of the substrate-induced spin shift: 33.5 ± 2.1%
